Publication PMC8279981, “A first-in-human, phase 1 study of the NEDD8 activating enzyme E1 inhibitor TAS4464 in patients with advanced solid tumors” (Investigational New Drugs, 2021)

Tested on: patients with advanced or metastatic solid tumors
Assay: Phase 1 study: treatment-related adverse events (NCI CTCAE v4.03)
Type: in vivo, human
Details: for Anemia (treatment-related adverse event) / Blood bilirubin increased (treatment-related adverse event) / Decreased appetite (treatment-related adverse event) / Diarrhea (treatment-related adverse event) / Fatigue (treatment-related adverse event) / GGT increased (treatment-related adverse event) / Hypoalbuminemia (treatment-related adverse event) / Malaise (treatment-related adverse event) / Nausea (treatment-related adverse event) / Neuropathy peripheral (treatment-related adverse event) / Pyrexia (treatment-related adverse event) / Rash (treatment-related adverse event) / Vomiting (treatment-related adverse event) / WBC decreased (treatment-related adverse event) / ALP increased (treatment-related adverse event) / ALT increased (treatment-related adverse event) / AST increased (treatment-related adverse event): Grade ≥ 3
Method: The highest non-severely toxic dose was derived from a dog toxicology study and was used to calculate a clinical starting dose of 10 mg/m^2, which corresponds to one-sixth of the human-equivalent dose. The maximum tolerated dose (MTD) of TAS4464 was investigated using an accelerated titration design. Initially, the starting TAS4464 dose was 10 mg/m^2 and was followed by an initial accelerated stage (i.e., weekly dosing phase) with 100% dose-step increments (level 1: 10 mg/m^2, level 2: 20 mg/m^2, level 3: 40 mg/m^2, and level 4: 56 mg/m^2). The 100% dose-step increments continued until the occurrence of a grade ≥ 2 drug-related toxicity within Cycle 1; dose-limiting toxicity (DLT) within Cycle 1; the next dose level reaching 60 mg/m^2; or any safety concerns. Thereafter, 40% increments were employed in the standard stage.
In the standard stage, three to six patients were to be enrolled, and the dose was escalated in 40% increments if none of the first three patients experienced a DLT. If one patient experienced a DLT, three additional patients were to be enrolled at the same dose level. If two of three or two of six patients experienced a DLT, the dose escalation was to be ceased. […] Additionally, DLT criteria regarding abnormal liver function and discontinuation criteria for study drug administration were added. The TAS4464 dose level for Day 1 of Cycle 1 was then set to 40 mg/m^2 (level 3).
Therefore, TAS4464 was administered every 7 days by 1-h intravenous infusion (± 10 min) at the dose assigned to each level. Study treatment was repeated every 28 days. The dosing regimens of each cohort are summarized in Supplementary Fig. 1.
Secondary objectives included assessment of AEs, treatment-related AEs, objective response rate (ORR), disease control rate (DCR), progression-free survival (PFS), and PK, pharmacodynamic, and pharmacogenomic (PGx) parameters with TAS4464 administration. The National Cancer Institute Common Terminology Criteria for Adverse Events (NCI CTCAE) v4.03 [17] was used to assess the severity of AEs. […] RECIST v1.1 [16] was used to determine clinical response, and all computed tomography images were assessed by the physician at the study site after completion of the imaging procedure. The ORR was defined as the percentage of patients with the best overall response of complete response (CR) or partial response (PR). The DCR was the percentage of patients with a best overall response of CR, PR, stable disease (SD), or non-CR/non-progressive disease (PD). PFS was defined as the time from the date of enrollment until the date of investigator-assessed radiological disease progression or death due to any cause, whichever occurred first.

[1] = weekly dosing Level 1 (10 mg/m^2), n = 1
[2] = weekly dosing Level 2 (20 mg/m^2), n = 1
[3] = weekly dosing Level 3 (40 mg/m^2), n = 3
[4] = weekly dosing Level 4 (56 mg/m^2), n = 5
[5] = weekly dosing with lead-in Level 3 (20 → 40 mg/m^2), n = 3
[6] = weekly dosing with lead-in Level 4 (20 → 56 mg/m^2), n = 3

Structure (SMILES): CCOc1cccc(F)c1C#Cc1cn([C@@H]2O[C@H](CNS(N)(=O)=O)[C@@H](O)[C@H]2O)c2ncnc(N)c12 [TAS4464]
- Anemia (treatment-related adverse event) (Total, N = 16): 0 n (%)
- Blood bilirubin increased (treatment-related adverse event) (Total, N = 16): 0 n (%)
- Decreased appetite (treatment-related adverse event) (Total, N = 16): 0 n (%)
- Diarrhea (treatment-related adverse event) (Total, N = 16): 0 n (%)
- Fatigue (treatment-related adverse event) (Total, N = 16): 0 n (%)
- GGT increased (treatment-related adverse event) (Total, N = 16): 3 (18.8) n (%)
- Hypoalbuminemia (treatment-related adverse event) (Total, N = 16): 0 n (%)
- Malaise (treatment-related adverse event) (Total, N = 16): 0 n (%)
- Nausea (treatment-related adverse event) (Total, N = 16): 0 n (%)
- Neuropathy peripheral (treatment-related adverse event) (Total, N = 16): 0 n (%)
- Pyrexia (treatment-related adverse event) (Total, N = 16): 0 n (%)
- Rash (treatment-related adverse event) (Total, N = 16): 0 n (%)
- Vomiting (treatment-related adverse event) (Total, N = 16): 0 n (%)
- WBC decreased (treatment-related adverse event) (Total, N = 16): 1 (6.3) n (%)
- ALP increased (treatment-related adverse event) [1]: 0 n (%)
- ALT increased (treatment-related adverse event) [1]: 0 n (%)
- AST increased (treatment-related adverse event) [1]: 0 n (%)
- Anemia (treatment-related adverse event) [1]: 0 n (%)
- Blood bilirubin increased (treatment-related adverse event) [1]: 0 n (%)
- Decreased appetite (treatment-related adverse event) [1]: 0 n (%)
- Diarrhea (treatment-related adverse event) [1]: 0 n (%)
- Fatigue (treatment-related adverse event) [1]: 0 n (%)
- GGT increased (treatment-related adverse event) [1]: 0 n (%)
- Hypoalbuminemia (treatment-related adverse event) [1]: 0 n (%)
- Malaise (treatment-related adverse event) [1]: 0 n (%)
- Nausea (treatment-related adverse event) [1]: 0 n (%)
- Neuropathy peripheral (treatment-related adverse event) [1]: 0 n (%)
- Pyrexia (treatment-related adverse event) [1]: 0 n (%)
- Rash (treatment-related adverse event) [1]: 0 n (%)
- Vomiting (treatment-related adverse event) [1]: 0 n (%)
- WBC decreased (treatment-related adverse event) [1]: 0 n (%)
- ALP increased (treatment-related adverse event) [2]: 0 n (%)
- ALT increased (treatment-related adverse event) [2]: 0 n (%)
- AST increased (treatment-related adverse event) [2]: 0 n (%)
- Anemia (treatment-related adverse event) [2]: 0 n (%)
- Blood bilirubin increased (treatment-related adverse event) [2]: 0 n (%)
- Decreased appetite (treatment-related adverse event) [2]: 0 n (%)
- Diarrhea (treatment-related adverse event) [2]: 0 n (%)
- Fatigue (treatment-related adverse event) [2]: 0 n (%)
- GGT increased (treatment-related adverse event) [2]: 0 n (%)
- Hypoalbuminemia (treatment-related adverse event) [2]: 0 n (%)
- Malaise (treatment-related adverse event) [2]: 0 n (%)
- Nausea (treatment-related adverse event) [2]: 0 n (%)
- Neuropathy peripheral (treatment-related adverse event) [2]: 0 n (%)
- Pyrexia (treatment-related adverse event) [2]: 0 n (%)
- Rash (treatment-related adverse event) [2]: 0 n (%)
- Vomiting (treatment-related adverse event) [2]: 0 n (%)
- WBC decreased (treatment-related adverse event) [2]: 0 n (%)
- ALP increased (treatment-related adverse event) [3]: 0 n (%)
- ALT increased (treatment-related adverse event) [3]: 1 (33.3) n (%)
- AST increased (treatment-related adverse event) [3]: 1 (33.3) n (%)
- Anemia (treatment-related adverse event) [3]: 0 n (%)
- Blood bilirubin increased (treatment-related adverse event) [3]: 0 n (%)
- Decreased appetite (treatment-related adverse event) [3]: 0 n (%)
- Diarrhea (treatment-related adverse event) [3]: 0 n (%)
- Fatigue (treatment-related adverse event) [3]: 0 n (%)
- GGT increased (treatment-related adverse event) [3]: 0 n (%)
- Hypoalbuminemia (treatment-related adverse event) [3]: 0 n (%)
- Malaise (treatment-related adverse event) [3]: 0 n (%)
- Nausea (treatment-related adverse event) [3]: 0 n (%)
- Neuropathy peripheral (treatment-related adverse event) [3]: 0 n (%)
- Pyrexia (treatment-related adverse event) [3]: 0 n (%)
- Rash (treatment-related adverse event) [3]: 0 n (%)
- Vomiting (treatment-related adverse event) [3]: 0 n (%)
- WBC decreased (treatment-related adverse event) [3]: 0 n (%)
- ALP increased (treatment-related adverse event) [4]: 1 (20.0) n (%)
- ALT increased (treatment-related adverse event) [4]: 3 (60.0) n (%)
- AST increased (treatment-related adverse event) [4]: 3 (60.0) n (%)
- Anemia (treatment-related adverse event) [4]: 0 n (%)
- Blood bilirubin increased (treatment-related adverse event) [4]: 0 n (%)
- Decreased appetite (treatment-related adverse event) [4]: 0 n (%)
- Diarrhea (treatment-related adverse event) [4]: 0 n (%)
- Fatigue (treatment-related adverse event) [4]: 0 n (%)
- GGT increased (treatment-related adverse event) [4]: 3 (60.0) n (%)
- Hypoalbuminemia (treatment-related adverse event) [4]: 0 n (%)
- Malaise (treatment-related adverse event) [4]: 0 n (%)
- Nausea (treatment-related adverse event) [4]: 0 n (%)
- Neuropathy peripheral (treatment-related adverse event) [4]: 0 n (%)
- Pyrexia (treatment-related adverse event) [4]: 0 n (%)
- Rash (treatment-related adverse event) [4]: 0 n (%)
- Vomiting (treatment-related adverse event) [4]: 0 n (%)
- WBC decreased (treatment-related adverse event) [4]: 1 (20.0) n (%)
- ALP increased (treatment-related adverse event) [5]: 0 n (%)
- ALT increased (treatment-related adverse event) [5]: 0 n (%)
- AST increased (treatment-related adverse event) [5]: 0 n (%)
- Anemia (treatment-related adverse event) [5]: 0 n (%)
- Blood bilirubin increased (treatment-related adverse event) [5]: 0 n (%)
- Decreased appetite (treatment-related adverse event) [5]: 0 n (%)
- Diarrhea (treatment-related adverse event) [5]: 0 n (%)
- Fatigue (treatment-related adverse event) [5]: 0 n (%)
- GGT increased (treatment-related adverse event) [5]: 0 n (%)
- Hypoalbuminemia (treatment-related adverse event) [5]: 0 n (%)
- Malaise (treatment-related adverse event) [5]: 0 n (%)
- Nausea (treatment-related adverse event) [5]: 0 n (%)
- Neuropathy peripheral (treatment-related adverse event) [5]: 0 n (%)
- Pyrexia (treatment-related adverse event) [5]: 0 n (%)
- Rash (treatment-related adverse event) [5]: 0 n (%)
- Vomiting (treatment-related adverse event) [5]: 0 n (%)
- WBC decreased (treatment-related adverse event) [5]: 0 n (%)
- ALP increased (treatment-related adverse event) [6]: 0 n (%)
- ALT increased (treatment-related adverse event) [6]: 1 (33.3) n (%)
- AST increased (treatment-related adverse event) [6]: 1 (33.3) n (%)
- Anemia (treatment-related adverse event) [6]: 0 n (%)
- Blood bilirubin increased (treatment-related adverse event) [6]: 0 n (%)
- Decreased appetite (treatment-related adverse event) [6]: 0 n (%)
- Diarrhea (treatment-related adverse event) [6]: 0 n (%)
- Fatigue (treatment-related adverse event) [6]: 0 n (%)
- GGT increased (treatment-related adverse event) [6]: 0 n (%)
- Hypoalbuminemia (treatment-related adverse event) [6]: 0 n (%)
- Malaise (treatment-related adverse event) [6]: 0 n (%)
- Nausea (treatment-related adverse event) [6]: 0 n (%)
- Neuropathy peripheral (treatment-related adverse event) [6]: 0 n (%)
- Pyrexia (treatment-related adverse event) [6]: 0 n (%)
- Rash (treatment-related adverse event) [6]: 0 n (%)
- Vomiting (treatment-related adverse event) [6]: 0 n (%)
- WBC decreased (treatment-related adverse event) [6]: 0 n (%)
- ALT increased, Grade ≥ 3 treatment-related AE (all treated patients): 31.3%
- ALT increased, all-grade treatment-related AE (all treated patients): 68.8%
- AST increased, Grade ≥ 3 treatment-related AE (all treated patients): 31.3%
- AST increased, all-grade treatment-related AE (all treated patients): 62.5%
- alkaline phosphatase (ALP) increased, all-grade treatment-related AE (all treated patients): 43.8%
- decreased appetite, all-grade treatment-related AE (all treated patients): 31.3%
- nausea, all-grade treatment-related AE (all treated patients): 43.8%
- drug-induced liver injury by Hy's law criteria (doses of up to 56 mg/m^2): No patients presented with drug-induced liver injury
- treatment-related serious AE (weekly dosing level 4, resolved following TAS4464 dose reduction): ALT increased occurring in one patient
- serious AEs (whole study): Four serious AEs were reported in three patients
- deaths or fatal AEs (within the study period): No deaths or fatal AEs occurred
